Results from ChEMBL document CHEMBL1156995, “Identification of potent, highly constrained CGRP receptor antagonists” (Bioorg Med Chem Lett, 2010).
Activity calls are given as the source filed them. No cut-off for these calls is given here.

Columns and labels:
[1] = molecular target: T1, Calcitonin gene-related peptide type 1 receptor (Homo sapiens, UniProt O60894+Q16602); assay: Displacement of […] expressed in HEK293 cells coexpressing human RAMP1; assay type: cell-based
[2] = molecular target: T1, Calcitonin gene-related peptide type 1 receptor; assay: Antagonist activity at human CLR expressed in human HEK293 cells coexpressing human RAMP1 assessed as Inhibition of CGRP-induced cAMP production; assay type: functional, cell-based
[3] = molecular target: T1, Calcitonin gene-related peptide type 1 receptor; assay: Antagonist activity at human CLR expressed in human HEK293 cells coexpressing human RAMP1 assessed as Inhibition of CGRP-induced cAMP production in the presence of 50% human serum; assay type: functional, cell-based
[4] = Oral bioavailability in rat at 10 mg/kg in presence of methylcellulose; assay type: ADME, organism-based; details: in vivo
[5] = Half life in rat at 2 mg/kg, iv; assay type: ADME, organism-based; design: dose 2 mg/kg, route intravenous; details: in vivo
[6] = Clearance in rat at 10 mg/kg, po or 2 mg/kg, iv; assay type: ADME, organism-based; details: in vivo
[7] = Oral bioavailability in rat at 5 mg/kg in presence of PEG400:water; assay type: ADME, organism-based; details: in vivo
[8] = Half life in rat at 1 mg/kg, iv; assay type: ADME, organism-based; design: dose 1 mg/kg, route intravenous; details: in vivo
[9] = Clearance in rat at 5 mg/kg, po or 1 mg/kg, iv; assay type: ADME, organism-based; details: in vivo
[10] = Oral bioavailability in rat at 10 mg/kg in presence of lmwitor:tween; assay type: ADME, organism-based; details: in vivo
[11] = Oral bioavailability in rat at 5 mg/kg in presence of lmwitor:tween; assay type: ADME, organism-based; details: in vivo
[12] = Clearance in rhesus monkey at 2 mg/kg, po and 0.5 mg/kg, iv; assay type: ADME, organism-based, Macaca mulatta; details: in vivo
[13] = Oral bioavailability in dog at 1 mg/kg in presence of methylcellulose; assay type: ADME, organism-based, Canis lupus familiaris; details: in vivo
[14] = Oral bioavailability in rhesus monkey at 2 mg/kg in presence of methylcellulose; assay type: ADME, organism-based, Macaca mulatta; details: in vivo
[15] = Half life in rat at 2mg/kg, iv; assay type: ADME, organism-based; details: in vivo
[16] = Half life in dog at 0.5 mg/kg, iv; assay type: ADME, organism-based, Canis lupus familiaris; design: dose 0.5 mg/kg, route intravenous; details: in vivo
[17] = Half life in rhesus monkey at 0.5 mg/kg, iv; assay type: ADME, organism-based, Macaca mulatta; design: dose 0.5 mg/kg, route intravenous; details: in vivo
[18] = Clearance in rat at 10 mg/kg, po and 2 mg/kg, iv; assay type: ADME, organism-based; details: in vivo
[19] = Clearance in dog at 1 mg/kg, po and 0.5 mg/kg, iv; assay type: ADME, organism-based, Canis lupus familiaris; details: in vivo
[20] = test system: Rhesus monkey; assay: Inhibition of capsaicin-induced vasodilation in orally dosed rhesus monkey at 5.5 uM plasma level; assay type: functional, organism-based; details: Macaca mulatta
[21] = test system: Rhesus monkey; assay: Inhibition of capsaicin-induced vasodilation in orally dosed rhesus monkey; assay type: functional, organism-based; details: Macaca mulatta

T1 sequence (Q16602 whole entry, one chain of several): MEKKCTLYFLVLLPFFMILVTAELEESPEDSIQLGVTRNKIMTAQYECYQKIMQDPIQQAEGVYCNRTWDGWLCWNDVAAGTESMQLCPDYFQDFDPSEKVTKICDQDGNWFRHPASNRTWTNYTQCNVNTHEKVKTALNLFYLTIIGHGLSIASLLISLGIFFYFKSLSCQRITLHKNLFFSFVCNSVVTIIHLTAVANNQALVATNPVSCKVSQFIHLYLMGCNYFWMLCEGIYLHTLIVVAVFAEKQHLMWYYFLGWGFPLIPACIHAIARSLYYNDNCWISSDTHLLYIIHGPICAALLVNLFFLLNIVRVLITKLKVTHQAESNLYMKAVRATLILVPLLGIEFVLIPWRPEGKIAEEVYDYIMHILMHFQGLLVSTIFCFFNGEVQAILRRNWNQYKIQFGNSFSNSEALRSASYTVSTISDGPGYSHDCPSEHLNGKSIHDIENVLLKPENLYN

SMILES | Ki [1] [nM] | IC50 [2] [nM] | IC50 [3] [nM] | half-life [5] [min] | clearance [6] [mL/min/kg] | also measured
CN1C(=O)NC(=O)[C@@]12Cc1cc3ccc(CN4C(=O)CCc5ccccc54)nc3cc1C2 | 8.9 | 50 | 850 | 42 | 38 | bioavailability [4]: 10%
O=C1Cn2c(=O)n(Cc3ccc4cc5c(cc4n3)C[C@@]3(C5)C(=O)Nc4ncccc43)c3cccc(c32)N1 | 0.023 | 0.077 | 2.5 |  |  | bioavailability [7]: 0%; half-life [8]: 27 min; clearance [9]: 40 mL/min/kg
CN1C(=O)NC(=O)C12Cc1cc3ncc(Cn4c(=O)n(-c5ccccn5)c5ccccc54)nc3cc1C2 (centres undefined) | 185 |  |  |  |  | 
CCC12CC(=O)Nc3cccc(c31)N(Cc1ccc3cc4c(cc3n1)C[C@@]1(C4)C(=O)Nc3ncccc31)C2 (some centres undefined) | 0.072 | 0.68 | 1.5 | 36.6 | 11 | bioavailability [10]: 9%
CN1C(=O)NC(=O)[C@@]12Cc1cc3ccc(Cn4c(=O)n5c6c(cccc64)NC(=O)C5)nc3cc1C2 | 0.3 | 1.7 | 14 |  |  | 
CN1C(=O)NC(=O)[C@]12Cc1cc(F)c(NC(=O)Cn3c(=O)n(-c4ccccn4)c4ccccc43)cc1C2 | 720 |  |  |  |  | 
CN1C(=O)NC(=O)[C@]12Cc1ccc(NC(=O)Cn3c(=O)n(-c4ccccn4)c4ccccc43)c(F)c1C2 | 55 |  |  |  |  | 
CN1C(=O)NC(=O)[C@@]12Cc1cc3ccc(CN4CC5CC(=O)Nc6cccc4c65)nc3cc1C2 (some centres undefined) | 1.5 | 7.3 | 43 | 66 | 11 | bioavailability [10]: 41%
CC12CC(=O)Nc3cccc(c31)N(Cc1ccc3cc4c(cc3n1)C[C@@]1(C4)C(=O)Nc3ncccc31)C2 (some centres undefined) | 0.12 | 0.52 | 1.3 | 37.2 | 28 | bioavailability [10]: 6%
O=C1CC2CN(Cc3ccc4cc5c(cc4n3)C[C@@]3(C5)C(=O)Nc4ncccc43)c3cccc(c32)N1 (some centres undefined) | 0.55 | 0.86 | 4.1 |  |  | bioavailability [11]: 8%; half-life [8]: 19.2 min; clearance [9]: 19 mL/min/kg
CN1C(=O)Cn2c(=O)n(Cc3ccc4cc5c(cc4n3)C[C@@]3(C5)C(=O)NC(=O)N3C)c3cccc1c32 | 3 | 33 | 1200 |  |  | 
O=C1CCc2ccccc2N1Cc1ccc2cc3c(cc2n1)C[C@@]1(C3)C(=O)Nc2ncccc21 | 1.4 | 4.7 | 81 | 21 | 56 | bioavailability [4]: 3%
CN1C(=O)NC(=O)[C@@]12Cc1cc3ccc(CN4CC5(C)CC(=O)Nc6cccc4c65)nc3cc1C2 (some centres undefined) | 0.52 | 2.2 | 6.5 | 96 | 14 | clearance [12]: 5.6 mL/min/kg; bioavailability [4]: 45%; bioavailability [10]: 34%; bioavailability [13]: 59%; bioavailability [14]: 38%; half-life [15]: 96 min; half-life [16]: 366 min; half-life [17]: 102 min; clearance [18]: 14 mL/min/kg; clearance [19]: 1.6 mL/min/kg; inhibition [20]: Active; EC90 [21]: 5.5 µM
CN1C(=O)Cn2c(=O)n(Cc3ccc4cc5c(cc4n3)C[C@@]3(C5)C(=O)Nc4ncccc43)c3cccc1c32 | 0.41 | 1.2 | 95 |  |  | 
CN1C(=O)NC(=O)[C@@]12Cc1cc3nc(Cn4c(=O)n(-c5ccccn5)c5ccccc54)oc3cc1C2 | 6000 |  |  |  |  | 
CCC12CC(=O)Nc3cccc(c31)N(Cc1ccc3cc4c(cc3n1)C[C@@]1(C4)C(=O)NC(=O)N1C)C2 (some centres undefined) | 1.3 | 7.2 | 44 | 66 | 44 | bioavailability [4]: 65%
CN1C(=O)NC(=O)[C@]12Cc1cc3ccc(Cn4c(=O)n(-c5ccccn5)c5ccccc54)nc3cc1C2 | 17 |  |  |  |  | 
